We go through three compounds from patent US20090131523A1, “Lipid compositions for the treatment and prevention of proliferative diseases and for the reduction of incidences of mutagenesis and carinogenesis” (Enzymotec Ltd., priority 2007, published 2009).

For data set [1] the following is noted: palmitic acid in yoghurt; Nadathur et al. 1996; cited from earlier work.
Data set [2] relates to squamous cell carcinoma (SCC). The following applies: Harris et al. 2005; cited from earlier work.
For data set [3], the system named is tk locus of L5178Y mouse lymphoma cells. In kind it is cell-based. The following applies: 10 μg/ml. An excerpt:
The MLA assay evaluates the mutagenic potential of the tested oils based on quantitation of forward mutations at the tk locus of L5178Y in mouse lymphoma cells. The mutagenicity of the test agents is indicated by the increase in the number of mutants after treatment. The tk enzyme is responsible for incorporating exogenous thymidine via a salvage pathway, into the cell in the form of thymidine monophosphate. Analogues of thymidine, such as trifluorothymidine (TFT) can also be phosphorylated by tk enzyme, which leads to cell toxicity. Forward mutation at this locus results in a loss of tk activity and subsequent resistance to TFT, which is used as the selective agent to kill wild type cells. Thus the tk mutants are not killed by TFT and are able to survive due to their ability to synthesize […] de novo.
The objective of the MLA assay was to study the inhibitory effect of Fat blend 6 (Table 2) on the incidence of mammalian cell gene mutations. Each group of L5178Y cells was incubated with one of the tested oils, i.e. with Fat blend 6 or with oil containing low palmitic acid (LPO), and the incidence of specific mutations was examined using the MLA assay. The study experiments were performed with a constant concentration of reference mutagen. Additionally, several concentrations of the test items were used. Positive and negative controls were included in the experiment.
Study procedure: 1×10^7 cells/culture (80 cm^2 flasks) were exposed to several concentrations of tested oil in the presence of the mutagen (10 μg/ml MMS) in parallel to the negative and positive controls (Table 6, FIG. 2). Cells were incubated with the tested oil and mutagen for 3-4 hours to induce and increase the efficiency of anti-mutagenesis effect. Following the incubation, the mutagen was removed by centrifugation (400 g, 5 min) and the cells were washed twice. Subsequently the cells were re-suspended in growth medium for an expression period of 4 days. Following expression period, cultures were seeded in selective medium (containing TFT). Cells from each experimental group were seeded in four 96-well plates at a density of 2000 cells/well in selective medium. After an incubation period of 11 days at 37±1° C., 5±0.5% CO2 and 95±5% humidified atmosphere, the number of colony containing/empty wells was scored using microscope. The colonies size and/or morphology were also characterized. The inhibitory effect of the 2 tested oils was evaluated using the following criteria: (a) a decrease of Mutation Frequencies in the presence of tested oil related to the positive control. (b) Decreased occurrence of small colonies (slow growth colonies) indicated by a high large/small colonies ratio was an indication for inhibitory potential clastogenic effects and/or chromosomal aberrations.
The study was conducted based on the Ninth Addendum to OECD Guidelines for Testing of Chemicals, Section 4, No. 476, “In Vitro Mammalian Cell Gene Mutation Test”, adapted 21 Jul. 1997. This type of study was used in Whittaker P, Evaluation of commercial kava extracts and kavalactone standards for mutagenicity and toxicity using the mammalian cell gene mutation assay in L5178Y mouse lymphoma cells, Food Chem. Toxicol. 2007.

Turning to `CCCCCCCCCCCCCCCC(=O)O` [palmitic acid], in data set [1], the anti-MNNG activity entry is “exerts anti-N-methyl-N′-nitro-N-nitrosoguanidine (MNNG) activity”. For the same compound, in data set [2], the “association of increasing dietary proportions with squamous cell carcinoma” value is reported as “associated with reduced squamous cell carcinoma (SCC)”.
On to `CCCCCC/C=C\CCCCCCCC(=O)O` [palmitoleic acid], for which, in data set [2], the “association of increasing dietary proportions with squamous cell carcinoma” value is “associated with reduced squamous cell carcinoma (SCC)”.
Regarding `COS(C)(=O)=O` [MMS, methyl methane sulfonate], in data set [3], the “% change in mutants compare to MMS treat” value is reported as 100%, the “Colony Sizing Large/small” value came out at 1.53, the “Mutants/10^6 cells” value was 489 per 10^6 cells and the Mutation factor amounted to 12. In addition, the “relative suspension growth (RSG)” value in data set [3] is 65.8%.
